Values joined by “and” are separate entries in the source; they are usually repeats but may differ in a detail not shown here. Equal entries are not always repeated.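 Dose response: 5 concentrations. Exposure: 48 h. Format: 96-well plates. Endpoint: linear interpolation; highest concentration if not reached. Here, GI50 denotes the concentration required for 50% inhibition of growth. TGI marks complete inhibition of growth.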
Experiments:
Test in all cases: NCI anticancer screen, dose series, 48 h
HCT-15 colon = system: HCT-15 colon
LOX IMVI melanoma = system: LOX IMVI melanoma
OVCAR-3 ovarian = system: OVCAR-3 ovarian
OVCAR-8 ovarian = system: OVCAR-8 ovarian
SF-539 CNS = system: SF-539 CNS
SK-MEL-2 melanoma = system: SK-MEL-2 melanoma
SK-OV-3 ovarian = system: SK-OV-3 ovarian
SW-620 colon = system: SW-620 colon
UO-31 renal = system: UO-31 renal
NCI/ADR-RES ovarian = system: NCI/ADR-RES ovarian

SMILES	TGI (HCT-15 colon)	TGI (LOX IMVI melanoma)	TGI (OVCAR-3 ovarian)	TGI (OVCAR-8 ovarian)	TGI (SF-539 CNS)	TGI (SK-MEL-2 melanoma)	TGI (SK-OV-3 ovarian)	TGI (SW-620 colon)	TGI (UO-31 renal)	TGI (NCI/ADR-RES ovarian)	GI50 (HCT-15 colon)	GI50 (LOX IMVI melanoma)	GI50 (NCI/ADR-RES ovarian)	GI50 (OVCAR-8 ovarian)	GI50 (SF-539 CNS)	GI50 (SK-MEL-2 melanoma)	GI50 (SW-620 colon)	GI50 (UO-31 renal)	GI50 (OVCAR-3 ovarian)	GI50 (SK-OV-3 ovarian)
CC1CC(c2ccccc2)=Nc2ccccc2S1(=O)=O (stereo not drawn)	54.2 µM	31 µM	32.8 µM	43.9 µM	34.1 µM	31.3 µM	36.4 µM	31.6 µM	29 µM	–	–	–	–	–	–	–	–	–	–	–
COC(=O)c1c(-c2ccccc2)cc2c3cc(-c4ccccc4)c(C(=O)OC)n3c3ccccc3n12	> 100 µM	> 100 µM	> 100 µM	> 100 µM	> 100 µM	> 100 µM	> 100 µM	> 100 µM	> 100 µM	–	–	–	–	–	–	–	–	–	–	–
O=[N+]([O-])c1c(/C=N/Nc2ccccc2)oc(-c2ccc3c(c2)OCO3)c1-c1ccc2c(c1)OCO2	–	18.1 µM	98.2 µM	> 100 µM	> 100 µM	24.2 µM	> 100 µM	> 100 µM	–	–	–	–	–	–	–	–	–	–	–	–
CCN(CC)c1ccc(N=Nc2ccc(-c3nc4cccnc4o3)cc2)cc1	> 100 µM	> 100 µM	> 100 µM	> 100 µM	> 100 µM	> 100 µM	–	> 100 µM	> 100 µM	–	–	–	–	–	–	–	–	–	–	–
O=c1cc(-c2ccccc2)[nH]c2cc(Cl)cc(Cl)c12	> 100 µM	> 100 µM	–	83.5 µM	> 100 µM	> 100 µM	59.4 µM	> 100 µM	> 100 µM	–	–	–	–	–	–	–	–	–	–	–
CCN(CC)CCC1CC/C(=C\c2ccc(OC)cc2)C1=O (stereo not drawn)	> 100 µM	> 100 µM	> 100 µM	> 100 µM	> 100 µM	> 100 µM	–	> 100 µM	> 100 µM	–	–	–	–	–	–	–	–	–	–	–
CCOc1ccccc1NC(=O)/C=C1\NC(=O)CS1	–	> 100 µM	> 100 µM	> 100 µM	> 100 µM	> 100 µM	> 100 µM	> 100 µM	> 100 µM	–	–	–	–	–	–	–	–	–	–	–
CC(=O)CC1CCC(=O)CCC(=O)OC(CC(C)=O)CCC(=O)CCC(=O)O1 (stereo not drawn)	> 100 µM	–	> 100 µM	> 100 µM	> 100 µM	–	> 100 µM	> 100 µM	–	> 100 µM	–	–	–	–	–	–	–	–	–	–
Cc1cc2c(CC(=O)O)[nH]nc2c(C(=O)O)c1C	> 100 µM	> 100 µM	> 100 µM	> 100 µM	> 100 µM	> 100 µM	> 100 µM	> 100 µM	> 100 µM	–	–	–	–	–	–	–	–	–	–	–
S=C(Nc1ccc(-c2nc3ccccc3[nH]2)cc1)NC1CCCCC1	37.9 µM	–	43.8 µM	83.7 µM	48.5 µM	–	–	–	71.6 µM	82.2 µM	16.2 µM	15.4 µM	28.6 µM	26.3 µM	22.6 µM	36.5 µM	31.6 µM	21.3 µM	–	–
C[CH2][Sn]1([CH2]C)[O]C(=O)[O][Sn]([CH2]C)([CH2]C)[O]1	> 54.4 µM	33 µM	> 61.8 µM	20.4 µM	38.5 µM	29.6 µM	> 100 µM	29.2 µM	> 100 µM	–	25.3 µM	17.2 µM	–	14.2 µM	19.7 µM	15.8 µM	15.2 µM	45.8 µM	23.5 µM	> 100 µM
Cc1cc2nc3c(=O)n(C)c(=O)nc-3n(-c3ccc(Cl)cc3)c2cc1C	21.9 µM	–	8.81 µM	43.7 µM	25.4 µM	34.9 µM	67.4 µM	20.5 µM	52.6 µM	–	–	–	–	–	–	–	–	–	–	–
C=CCn1c(C)nc2cc(Nc3nc(Nc4ccc5nc(C)n(CC=C)c5c4)c4ccccc4n3)ccc21	–	0.466 µM	0.342 µM	0.535 µM	2.22 µM	–	–	–	2.74 µM	5.27 µM	–	0.208 µM	2.03 µM	0.229 µM	1.03 µM	–	–	1.4 µM	0.183 µM	–
NC(N)=N/N=C(/c1nc2ccc([N+](=O)[O-])cc2[nH]c1=O)C(O)c1ccco1 (stereo not drawn)	> 100 µM	> 100 µM	–	> 100 µM	> 100 µM	> 100 µM	> 100 µM	> 100 µM	> 100 µM	–	–	–	–	–	–	–	–	–	–	–
O=C(Oc1ccc(O)c2c(=O)n3c(cc12)[nH]c1ccccc13)c1ccccc1	28.2 µM	20.1 µM	–	32.5 µM	36.6 µM	> 100 µM	–	26.9 µM	10.1 µM	55 µM	12.9 µM	4.77 µM	18.7 µM	11.1 µM	6.63 µM	21 µM	5.1 µM	2.19 µM	–	–
COc1cc(C2c3cc4c(cc3[C@@H](Nc3ccc(C(=O)O)cc3)C3COC(=O)[C@H]23)OCO4)cc(OC)c1O (stereo partly drawn)	32.8 µM and > 17.5 µM	18.7 µM and 5.1 µM	66.9 µM and > 17.5 µM	54 µM and > 17.5 µM	32.7 µM and > 17.5 µM	75.3 µM and > 17.5 µM	> 100 µM	62.4 µM and > 17.5 µM	> 100 µM	–	–	–	–	–	–	–	11.9 µM and 3.89 µM	–	–	34.4 µM and 15.3 µM
CCOC(=O)CCC(=O)C1c2cccc(O)c2C(=O)c2c(O)cccc21	–	1.89 µM	2.26 µM	3.4 µM	1.63 µM	–	–	2.24 µM	1.48 µM	–	–	–	–	–	–	–	–	–	–	–
C=CCNC(=S)N1CC(C)C(=O)Nc2ccccc21 (stereo not drawn)	> 100 µM	> 100 µM	> 100 µM	> 100 µM	> 100 µM	> 100 µM	–	> 100 µM	> 100 µM	–	–	–	–	–	–	–	–	–	–	–
Nc1ccc(C(=O)N/C(=C\C=C\c2ccco2)c2nc3[nH]c(=S)[nH]c(=O)c3[nH]2)cc1	> 100 µM	–	> 100 µM	> 100 µM	> 100 µM	> 100 µM	> 100 µM	> 100 µM	> 100 µM	–	–	–	–	–	–	–	–	–	–	–
CN1CCN(CCSC2Cc3cc(Cl)ccc3Sc3ccccc32)CC1 (stereo not drawn)	12.2 µM	14.1 µM	16.5 µM	19.4 µM	11.7 µM	3.75 µM	32.5 µM	7.21 µM	21.6 µM	–	–	–	–	–	–	–	–	–	–	–
Cc1cc2nc3c(C(OC4OC(CO)C(O)C(O)C4O)C(O)CO)nn(-c4ccccc4)c3nc2cc1C (stereo not drawn)	> 100 µM	> 100 µM	> 100 µM	> 100 µM	> 100 µM	–	> 100 µM	–	> 100 µM	–	–	–	–	–	–	–	–	–	–	–
